Data reported in patent publication US12018021B2 (UCB Biopharma SRL, priority 2018, dated 2024).

Target: IgE-Tb / FcεRIα-Y131A-AF488 (Homo sapiens, UniProt P01854)
Test: IgE-Tb / FcεRIα-Y131A-AF488 FRET assay (protocol for examples 1 to 233)
Assay type: binding
Conditions: examples 1 to 233: 5 nM IgE-Tb, 25 nM FcεRIα-Y131A-AF488, incubated 2 hours at room temperature; read-out: Y131A FRET IC50 range
Method in brief: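 Compounds (top final concentration usually 10 μM, 3-fold, 10 points, 2% DMSO) incubated 2 h at room temperature with IgE-Tb (5 nM) and FcεRIα-Y131A-AF488 (25 nM). Background from 200 nM unlabelled receptor subtracted; FRET ratio 520/495 nm after 330 nm excitation gave percent inhibition, fitted four-parameter for IC50.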

Sequence of IgE-Tb / FcεRIα-Y131A-AF488 (P01854 1-427 limits assumed, stated change not applied): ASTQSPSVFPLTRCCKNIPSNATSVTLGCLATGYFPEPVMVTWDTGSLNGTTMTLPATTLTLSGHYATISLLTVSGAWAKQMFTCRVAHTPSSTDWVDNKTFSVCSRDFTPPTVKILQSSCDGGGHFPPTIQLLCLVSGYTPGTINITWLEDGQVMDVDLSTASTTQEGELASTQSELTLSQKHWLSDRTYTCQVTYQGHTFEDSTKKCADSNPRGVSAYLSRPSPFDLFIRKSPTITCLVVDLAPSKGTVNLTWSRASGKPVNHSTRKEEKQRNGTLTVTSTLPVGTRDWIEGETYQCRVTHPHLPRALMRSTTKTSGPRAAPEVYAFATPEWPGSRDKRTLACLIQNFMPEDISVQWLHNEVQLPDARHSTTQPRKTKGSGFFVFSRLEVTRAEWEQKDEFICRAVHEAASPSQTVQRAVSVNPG

| Compound | IC50 |
| --- | --- |
| O=C(NCC1CC1)c1c(NC(=O)C2CC2)sc2c1C[C@@H](n1cnnc1Nc1ccccn1)CC2 [Example 138, (5S)-2-(Cyclopropanecarbonylamino)-N-(cyclopropylmethyl)-5-[3-(2-pyridylamino)-1,2,4-triazo-4-yl]-4,5,6,7-tetrahydrobenzothiophene-3-carboxamide] | < 1000 nM |
| CC(=O)Nc1nccn1[C@H]1CCc2sc(NC(=O)C3CC3)c(C(=O)NCC3CC3)c2C1 [Example 139, (5S)-5-(2-Acetamidoimidazol-1-yl)-2-(cyclopropanecarbonylamino)-N-(cyclopropylmethyl)-4,5,6,7-tetrahydrobenzothiophene-3-carboxamide] | < 1000 nM |
| O=C(NCC1CC1)c1c(NC(=O)C2CC2)sc2c1CC(n1nncc1Nc1cccnc1)CC2 (stereo not shown) [Example 141, 2-(Cyclopropanecarbonylamino)-N-(cyclopropylmethyl)-5-[5-(3-pyridylamino)triazo-1-yl]-4,5,6,7-tetrahydrobenzothiophene-3-carboxamide] | < 1000 nM |
| CCNC(=S)NC1CCc2sc(NC(=O)C3CC3)c(C(=O)NCC3CC3)c2C1 (stereo not shown) [Example 142, 2-(Cyclopropanecarbonylamino)-N-(cyclopropylmethyl)-5-(ethylcarbamothioylamino)-4,5,6,7-tetrahydrobenzothiophene-3-carboxamide] | < 1000 nM |
| O=C(NCC1CC1)c1c(NC(=O)C2CC2)sc2c1C[C@@H](n1cnnc1N[C@H]1CCOC1)CC2 [Example 143, (5S)-2-(cyclopropanecarbonylamino)-N-(cyclopropylmethyl)-5-[3-[[(3S)-tetrahydrofuran-3-yl]amino]-1,2,4-triazol-4-yl]-4,5,6,7-tetrahydrobenzothiophene-3-carboxamide] | < 1000 nM |
| CCNC(=NC#N)NC1CCc2sc(NC(=O)C3CC3)c(C(=O)NCC3CC3)c2C1 (stereo not shown) [Example 144, 5-[[N′-Cyano-N-ethyl-carbamimidoyl]amino]-2-(cyclopropanecarbonylamino)-N-(cyclopropylmethyl)-4,5,6,7-tetrahydrobenzothiophene-3-carboxamide] | < 1000 nM |
| CCN/C(=N\[N+](=O)[O-])N[C@H]1CCc2sc(NC(=O)C3CC3)c(C(=O)NCC3CC3)c2C1 [Example 145, (5S)-2-(Cyclopropanecarbonylamino)-N-(cyclopropylmethyl)-5-[[(E)-N-ethyl-N′-nitro-carbamimidoyl]amino]-4,5,6,7-tetrahydrobenzothiophene-3-carboxamide] | < 1000 nM |
| CCN/C(=N\[N+](=O)[O-])N[C@@H]1CCc2sc(NC(=O)C3CC3)c(C(=O)NCC3CC3)c2C1 [Example 146, (5R)-2-(Cyclopropanecarbonylamino)-N-(cyclopropylmethyl)-5-[[(E)-N-ethyl-N′-nitro-carbamimidoyl]amino]-4,5,6,7-tetrahydrobenzothiophene-3-carboxamide] | 10000 to 50000 nM |
| CCNc1nccn1[C@H]1CCc2sc(NC(=O)C3CC3)c(C(=O)NCC3CC3)c2C1 [Example 147, (5S)-2-(Cyclopropanecarbonylamino)-N-(cyclopropylmethyl)-5-[2-(ethylamino)imidazol-1-yl]-4,5,6,7-tetrahydrobenzothiophene-3-carboxamide] | < 1000 nM |
| Cc1noc(C)c1Nc1nncn1[C@H]1CCc2sc(NC(=O)C3CC3)c(C(=O)NCC3CC3)c2C1 [Example 148, (5S)-2-(Cyclopropanecarbonylamino)-N-(cyclopropylmethyl)-5-[3-[(3,5-dimethylisoxazol-4-yl)amino]-1,2,4-triazol-4-yl]-4,5,6,7-tetrahydrobenzothiophene-3-carboxamide] | < 1000 nM |
| CCOC(=O)N=C(Nc1ccc(C)cc1)NC1CCc2sc(NC(=O)C3CC3)c(C(=O)NCC3CC3)c2C1 (stereo not shown) [Example 149, ethyl N-[[[2-(cyclopropanecarbonylamino)-3-(cyclopropylmethylcarbamoyl)-4,5,6,7-tetrahydrobenzothiophen-5-yl]amino]-(4-methylanilino)methylene]carbamate] | < 1000 nM |
| Cc1ncccc1Nc1nccn1[C@H]1CCc2sc(NC(=O)C3CC3)c(C(=O)NCC3CC3)c2C1 [Example 150, (5S)-2-(Cyclopropanecarbonylamino)-N-(cyclopropylmethyl)-5-[2-[(2-methyl-3-pyridyl)amino]imidazol-1-yl]-4,5,6,7-tetrahydrobenzothiophene-3-carboxamide] | < 1000 nM |
| CCNC(=C[N+](=O)[O-])NC1CCc2sc(NC(=O)C3CC3)c(C(=O)NCC3CC3)c2C1 (stereo not shown) [Example 151, 2-(cyclopropanecarbonylamino)-N-(cyclopropylmethyl)-5-[[1-(ethylamino)-2-nitro-vinyl]amino]-4,5,6,7-tetrahydrobenzothiophene-3-carboxamide] | 1000 to 10000 nM |
| Cc1cc(=O)[nH]c(NC2CCc3sc(NC(=O)C4CC4)c(C(=O)NCC4CC4)c3C2)n1 (stereo not shown) [Example 152, 2-(Cyclopropanecarbonylamino)-N-(cyclopropylmethyl)-5-[(4-methyl-6-oxo-1H-pyrimidin-2-yl)amino]-4,5,6,7-tetrahydrobenzothiophene-3-carboxamide] | < 1000 nM |
| CNC(=O)c1ncn([C@H]2CCc3sc(NC(=O)C4CC4)c(C(=O)NCC4CC4)c3C2)c1N [Example 153, 5-amino-1-[(5S)-2-cyclopropaneamido-3-[(cyclopropylmethyl)carbamoyl]-4,5,6,7-tetrahydro-1-benzothiophen-5-yl]-N-methyl-1H-imidazole-4-carboxamide] | < 1000 nM |
| NC(=O)c1ncn([C@H]2CCc3sc(NC(=O)C4CC4)c(C(=O)NCC4CC4)c3C2)c1N [Example 154, 5-amino-1-[(5S)-2-cyclopropaneamido-3-[(cyclopropylmethyl)carbamoyl]-4,5,6,7-tetrahydro-1-benzothiophen-5-yl]-1H-imidazole-4-carboxamide] | < 1000 nM |
| O=C(NCC1CC1)c1c(NC(=O)C2CC2)sc2c1CC(n1ccnc1Nc1ccccc1)CC2 (stereo not shown) [Example 155, 5-(2-Anilinoimidazol-1-yl)-2-(cyclopropanecarbonylamino)-N-(cyclopropylmethyl)-4,5,6,7-tetrahydrobenzothiophene-3-carboxamide] | < 1000 nM |
| CCNC(=NC#N)N[C@H]1CCc2sc(NC(=O)C3CC3)c(C(=O)NCC3CC3)c2C1 [Example 156, (5S)-5-[[N′-cyano-N-ethyl-carbamimidoyl]amino]-2-(cyclopropanecarbonylamino)-N-(cyclopropylmethyl)-4,5,6,7-tetrahydrobenzothiophene-3-carboxamide] | < 1000 nM |
| CCNC(=O)NC1CCc2sc(NC(=O)C3CC3)c(C(=O)NCC3CC3)c2C1 (stereo not shown) [Example 157, 2-(Cyclopropanecarbonylamino)-N-(cyclopropylmethyl)-5-(ethylcarbamoylamino)-4,5,6,7-tetrahydrobenzothiophene-3-carboxamide] | 1000 to 10000 nM |
| O=C(NCC1CC1)c1c(NC(=O)C2CC2)sc2c1CC(Nc1cc(=O)cc[nH]1)CC2 (stereo not shown) [Example 158, 2-(Cyclopropanecarbonylamino)-N-(cyclopropylmethyl)-5-[(4-oxo-1H-pyridin-2-yl)amino]-4,5,6,7-tetrahydrobenzothiophene-3-carboxamide] | < 1000 nM |
| Cc1nnc(-c2ccc(N[C@H]3CCc4sc(NC(=O)C5CC5)c(C(=O)NCC5CC5)c4C3)cn2)o1 [Example 159, (5S)-2-(cyclopropanecarbonylamino)-N-(cyclopropylmethyl)-5-[[6-(5-methyl-1,3,4-oxadiazol-2-yl)-3-pyridyl]amino]-4,5,6,7-tetrahydrobenzothiophene-3-carboxamide] | < 1000 nM |
| CCNc1nnnn1C1CCc2sc(NC(=O)C3CC3)c(C(=O)NCC3CC3)c2C1 (stereo not shown) [Example 160, 2-(Cyclopropanecarbonylamino)-N-(cyclopropylmethyl)-5-[5-(ethylamino)tetrazol-1-yl]-4,5,6,7-tetrahydrobenzothiophene-3-carboxamide] | < 1000 nM |
| O=C(NCC1CC1)c1c(NC(=O)C2CC2)sc2c1CC(Nc1nc[nH]n1)CC2 (stereo not shown) [Example 161, 2-(Cyclopropanecarbonylamino)-N-(cyclopropylmethyl)-5-(1H-1,2,4-triazol-3-ylamino)-4,5,6,7-tetrahydrobenzothiophene-3-carboxamide] | < 1000 nM |
| Cc1cc(Nc2nncn2[C@@H]2CCc3sc(NC(=O)C4CC4)c(C(=O)NCC4CC4)c3C2)n(C)n1 [Example 162, (5R)-2-(Cyclopropanecarbonylamino)-N-(cyclopropylmethyl)-5-[3-[(2,5-dimethylpyrazol-3-yl)amino]-1,2,4-triazol-4-yl]-4,5,6,7-tetrahydrobenzothiophene-3-carboxamide] | < 1000 nM |
| Cn1cc(-n2cnnc2N[C@H]2CCc3sc(NC(=O)C4CC4)c(C(=O)NCC4CC4)c3C2)cn1 [Example 163, (5S)-2-(Cyclopropanecarbonylamino)-N-(cyclopropylmethyl)-5-[[4-(1-methylpyrazol-4-yl)-1,2,4-triazol-3-yl]amino]-4,5,6,7-tetrahydrobenzothiophene-3-carboxamide] | 1000 to 10000 nM |
| CCOC(=O)c1cn([C@H]2CCc3sc(NC(=O)C4CC4)c(C(=O)NCC4CC4)c3C2)cn1 [Example 164, ethyl 1-[(5S)-2-cyclopropaneamido-3-[(cyclopropylmethyl)carbamoyl]-4,5,6,7-tetrahydro-1-benzothiophen-5-yl]-1H-imidazole-4-carboxylate] | < 1000 nM |
| O=C(NCC1CC1)c1c(NC(=O)C2CC2)sc2c1CC(Nc1nncn1-c1ccc(F)cc1)CC2 (stereo not shown) [Example 165, 2-(Cyclopropanecarbonylamino)-N-(cyclopropylmethyl)-5-[[4-(4-fluorophenyl)-1,2,4-triazol-3-yl]amino]-4,5,6,7-tetrahydrobenzothiophene-3-carboxamide] | < 1000 nM |
| O=C(NCC1CC1)c1c(NC(=O)C2CC2)sc2c1C[C@@H](Nc1ncc[nH]1)CC2 [Example 166, (5S)-2-(Cyclopropanecarbonylamino)-N-(cyclopropylmethyl)-5-(1H-imidazol-2-ylamino)-4,5,6,7-tetrahydrobenzothiophene-3-carboxamide] | < 1000 nM |
